According to US7157017B2, “Fungicidal compositions and methods using cyanodithiocarbimates” (Buckman Laboratories International, Inc., priority 2003, dated 2007):

test system: Aspergillus niger; assay: Inhibition of growth of Aspergillus niger in liquid MSY medium (96-well microplate, OD 686 nm); format: cell-based; settings: MSY broth, four days at 28° C. in the dark, complete inhibition = OD≦0.05, test levels given as ppm
Protocol: The antifungal activities of compounds of formula (I) were measured by determining the inhibition of growth of Aspergillus niger in a standard liquid medium. The liquid growth medium is described as a solution of mineral salts+yeast extract (MSY). The MSY broth was prepared as described in ASTM G 21–70^1, and amended with glucose (10 g liter^−1) and yeast extract (1 g liter^−1). An aliquot (250 μL) of sterile medium was dispensed into each test well of a standard 96-well microplate (Corning No. 430247). Stock solutions of test compounds were prepared by dissolving the materials in 9:1 (v/v) solution of acetone:methanol. Appropriate volumes of stock solutions were added to the test wells in order to achieve the desired ppm levels. Each test well (plus controls) was then inoculated with 5 μL of a standardized suspension of Aspergillus niger. The cell suspension was prepared by suspending viable cells from a slant of potato dextrose agar into sterile, deionized water. The suspension was then adjusted to provide OD686=0.28. This density contains approximately 2.5×10^7 CFU mL^−1 (CFU=Colony Forming Units). The microplates were incubated in the dark for four days at 28° C. The optical density for each well at 686 nm was then recorded automatically using a SpectraMax 340 microplate reader (Molecular Devices Corp., Sunnyvale, Calif.). All wells were visually inspected in order to corroborate data from the instrument. […] The results are shown in Table 2. ^1“Standard Practice for Determining Resistance of Synthetic Polymeric Materials to Fungi”,ASTM Standards on Materials and Environmental Microbiology, 1st. Ed., 1987.

Row | SMILES | Antifungal MIC
1 | N#CN=C(SCCl)SCc1ccccc1 [Cl, —CH2C6H5, benzyl chloromethyl cyanodithiocarbimate] | 1.0
2 | CCCCCCSC(=NC#N)SCCl [Cl, —(CH2)5CH3, hexyl chloromethyl cyanodithiocarbimate] | 0.2
3 | CC(C)SC(=NC#N)SCCl [Cl, —CH2(CH3)2, isopropyl chloromethyl cyanodithiocarbimate] | 0.5
4 | CCCSC(=NC#N)SCCl [Cl, —(CH2)2CH3, propyl chloromethyl cyanodithioicarbimate] | 0.5
5 | C=CCSC(=NC#N)SCCl [Cl, —CH2CHC═CH2, allyl chloromethyl cyanodithiocarbimate] | 1.0

test system: fungal growth (mold) on wet blue hide; assay: Performance testing in a tannery: wet blue test pieces in mold-infested tropical chamber; settings: methyl carbitol-based formulation containing 30% w/w, 0.1% by weight in float (300 ppm active ingredient), chrome tanning of cowhides; 47 wet blue pieces, four weeks in tropical chamber
Protocol: A methyl carbitol-based formulation containing 30% w/w of hexyl chloromethyl cyanodithiocarbimate was tested in a commercial tannery. Eighty-two cowhides were subjected to a standard production run using chrome tanning. The test formulation was added to the float (tanning liquid) at a concentration of 0.1% by weight providing a concentration of 300 ppm of active ingredient hexyl chloromethyl cyanodithiocarbimate. At the completion of the tanning process, five tanned hides (“wet blues”) were chosen randomly. Numerous test pieces (12×14 cm) were cut from the butt, belly, and neck regions of each of the five hides. A total of 47 test pieces of wet blue obtained were coded relative to hide source and position, and each piece was suspended in a tropical chamber. The tropical chamber was a mold-infested humidity chamber designed to severely challenge the test fungicide applied during the tanning process. Each test piece was visually examined on a weekly basis for four weeks for the presence or absence and extent of possible mold growth. […] This is the type of performance desired of a fungicide by the hide tanning industry.

Row | SMILES | presence or absence and extent of mold growth on test pieces
6 | CCCCCCSC(=NC#N)SCCl [Cl, —(CH2)5CH3, hexyl chloromethyl cyanodithiocarbimate] | free of fungal growth
